15 compounds from patent US9334263B2, “Compositions useful for treating disorders related to kit” (BLUEPRINT MEDICINES CORPORATION, priority 2013, dated 2016) can be followed below.

One experiment concerns the target T1, D816V Kit (Homo sapiens, UniProt P10721, D816V).
T1 construct: purchased Carna Bioscience 08-156
Description: Kit D816V assay at Km (Caliper electrophoretic mobility shift). It is filed as biochemical. The conditions noted are these: 15 uM ATP, 25 C, 90 minutes. In a few lines: (§1)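 Read-out is the ratio of phosphorylated to unphosphorylated fluorescent peptide, resolved by mobility shift on a Caliper EZ Reader 2.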

For the next experiment, the target named is T2, wild type Kit (Homo sapiens, UniProt P10721).
T2 construct: purchased Carna Bioscience 08-156
Description: Kit wild type assay at Km (Caliper electrophoretic mobility shift). The format is biochemical. The conditions noted are these: 400 uM ATP, 25 C, 90 minutes; read-out: WT KIT. In a few lines:
as §1

A further experiment addresses T3, PDGFRA D842V (Homo sapiens, UniProt P16234, D842V).
T3 construct: purchased ProQinase 0761-0000-1
Description: PDGFRA D842V assay at Km (Caliper electrophoretic mobility shift). The format is biochemical. The conditions noted are these: 15 uM ATP, 25 C, 90 minutes; read-out: PDFGRA D842V. Here is the method: In order to assess the activity of chemical compounds against the relevant kinase of interest, the Caliper LifeSciences electrophoretic mobility shift technology platform is used. Fluorescently labeled substrate peptide is incubated in the presence of kinase and ATP so that a […] proportion of the peptide is phosphorylated. At the end of the reaction, the mix of phosphorylated (product) and non-phosphorylated (substrate) peptides are passed through the microfluidic system of the Caliper EZ Reader 2, under an applied potential difference. The presence of the phosphate group on the product peptide provides a difference in mass and charge between those of the substrate peptide, resulting in a separation of the substrate and product pools in the sample. As the pools pass a LEDS within the instrument, these pools are detected and resolved as separate peaks. The ratio between these peaks therefore reflects the activity of the chemical matter at that concentration in that well, under those conditions.
The reaction was stopped by the addition of 70 ul of Stop buffer (100 mM HEPES pH 7.5, 0.015% Brij 35, 35 mM EDTA and 0.2% of Coating Reagent 3 (Caliper Lifesciences)). The plate was then read on a Caliper EZReader 2 (protocol settings: −1.9 psi, upstream voltage −500, downstream voltage −3000, post sample sip 38 s).

Experiment [1] deals with T4, Kit D816V (HMC1.2 cells, Kit V560G and D816V) (Homo sapiens, UniProt P10721, D816V/V560G).
T4 construct: endogenous in cells; host or cells: HMC1.2 cells
Description: HMC1.2 autophosphorylation assay (AlphaLISA, phospho-Y719 c-Kit). The conditions noted are these: Kit autophosphorylation at tyrosine 719, 90 minutes, read-out: Cellular Activity. The format is cell-based. An outline of the steps:
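AlphaScreen signal comes from lysed HMC1.2 cells incubated with phospho-Y719 and total c-Kit antibodies (15 nM final), acceptor beads and then streptavidin donor beads, 2 h each at room temperature. Beforehand, cells deprived of serum overnight received compound for 90 min as a 10-point series, 25 uM–95.4 pM, 0.25% DMSO.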

T2 sequence (P10721 26-976): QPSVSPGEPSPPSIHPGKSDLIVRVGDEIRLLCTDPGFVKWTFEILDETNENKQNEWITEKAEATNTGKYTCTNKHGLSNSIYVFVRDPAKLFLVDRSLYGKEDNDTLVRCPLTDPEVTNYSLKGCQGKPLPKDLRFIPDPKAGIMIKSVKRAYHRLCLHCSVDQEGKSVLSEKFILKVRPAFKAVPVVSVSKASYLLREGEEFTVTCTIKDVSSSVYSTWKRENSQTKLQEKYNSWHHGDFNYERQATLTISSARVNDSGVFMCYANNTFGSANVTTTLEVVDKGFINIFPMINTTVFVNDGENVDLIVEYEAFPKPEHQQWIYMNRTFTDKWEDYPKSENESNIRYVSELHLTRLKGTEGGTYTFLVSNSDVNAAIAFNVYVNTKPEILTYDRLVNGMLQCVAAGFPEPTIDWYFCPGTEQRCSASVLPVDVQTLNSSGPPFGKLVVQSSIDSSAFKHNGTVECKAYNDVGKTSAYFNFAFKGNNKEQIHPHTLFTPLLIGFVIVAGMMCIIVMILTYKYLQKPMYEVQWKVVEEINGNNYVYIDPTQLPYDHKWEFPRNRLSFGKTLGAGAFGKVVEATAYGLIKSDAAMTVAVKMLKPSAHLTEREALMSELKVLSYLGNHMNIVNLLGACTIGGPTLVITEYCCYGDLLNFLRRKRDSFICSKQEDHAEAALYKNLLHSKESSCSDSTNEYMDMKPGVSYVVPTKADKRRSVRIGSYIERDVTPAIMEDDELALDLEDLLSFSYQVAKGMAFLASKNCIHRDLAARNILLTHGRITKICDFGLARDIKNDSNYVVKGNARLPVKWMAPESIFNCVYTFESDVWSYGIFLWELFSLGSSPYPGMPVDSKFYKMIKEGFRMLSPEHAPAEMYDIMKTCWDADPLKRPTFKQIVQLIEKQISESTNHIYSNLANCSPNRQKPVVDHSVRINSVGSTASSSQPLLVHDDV
T4 sequence (P10721 26-976 V560G/D816V): as the sequence (P10721 26-976) above, with V535G, D791V counted along it
T1 sequence (P10721 26-976 D816V): as the sequence (P10721 26-976) above, with D791V counted along it
T3 sequence (P16234 24-1089 D842V): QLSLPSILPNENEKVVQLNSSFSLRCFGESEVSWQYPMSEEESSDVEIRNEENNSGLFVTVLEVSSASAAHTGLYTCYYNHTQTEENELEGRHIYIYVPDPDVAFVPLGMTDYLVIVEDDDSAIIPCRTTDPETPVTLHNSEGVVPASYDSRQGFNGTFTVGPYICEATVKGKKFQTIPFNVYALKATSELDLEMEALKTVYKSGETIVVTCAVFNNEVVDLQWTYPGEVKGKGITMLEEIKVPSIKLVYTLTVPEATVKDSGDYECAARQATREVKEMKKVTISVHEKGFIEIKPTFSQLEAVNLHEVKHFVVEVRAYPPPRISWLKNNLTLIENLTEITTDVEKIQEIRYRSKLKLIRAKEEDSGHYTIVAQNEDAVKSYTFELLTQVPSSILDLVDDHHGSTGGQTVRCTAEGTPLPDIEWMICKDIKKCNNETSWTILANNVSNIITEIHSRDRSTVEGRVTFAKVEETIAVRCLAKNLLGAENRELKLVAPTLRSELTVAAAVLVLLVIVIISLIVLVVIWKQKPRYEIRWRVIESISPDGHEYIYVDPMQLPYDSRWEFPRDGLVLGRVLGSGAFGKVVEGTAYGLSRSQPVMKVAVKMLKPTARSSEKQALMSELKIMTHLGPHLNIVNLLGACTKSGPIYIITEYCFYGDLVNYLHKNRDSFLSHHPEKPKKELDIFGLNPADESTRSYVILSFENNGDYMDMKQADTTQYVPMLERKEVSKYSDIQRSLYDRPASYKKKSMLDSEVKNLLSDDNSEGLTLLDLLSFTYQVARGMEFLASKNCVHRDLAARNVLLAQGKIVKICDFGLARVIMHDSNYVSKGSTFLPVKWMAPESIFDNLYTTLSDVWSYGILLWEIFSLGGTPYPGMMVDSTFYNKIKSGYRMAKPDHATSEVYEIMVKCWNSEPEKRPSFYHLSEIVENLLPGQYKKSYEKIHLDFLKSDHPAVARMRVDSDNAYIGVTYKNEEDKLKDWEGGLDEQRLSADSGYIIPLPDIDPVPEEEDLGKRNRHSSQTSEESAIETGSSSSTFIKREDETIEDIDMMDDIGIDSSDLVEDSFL

Turning to `c1ccc(Cc2cnc(N3CCN(c4ncnc(Nc5cnn(C[C@H]6CNCCO6)c5)n4)CC3)nc2)cc1` [Compound 123], the IC50 at D816V Kit was less than 0.001 µM; at wild type Kit it was less than 0.01 µM; on PDGFRA D842V, less than 0.001 µM; in experiment [1] it was less than 0.01 µM.
As for `c1ccc(Cc2cnc(N3CCN(c4ncnc(Nc5cnn(CC6CCCNC6)c5)n4)CC3)nc2)cc1` (stereo not drawn) [Compound 117], the IC50 on D816V Kit was less than 0.001 µM; on wild type Kit, less than 0.01 µM; on PDGFRA D842V, less than 0.001 µM; in experiment [1] it was 0.01 to 0.1 µM.
As for `CC(C)N1CCc2ccc(Nc3ncnc(N4CCN(c5ncc(Cc6ccccc6)cn5)CC4)n3)cc2C1` [Compound 148], the IC50 on D816V Kit was less than 0.001 µM; on wild type Kit, less than 0.01 µM; on PDGFRA D842V it was less than 0.001 µM; in experiment [1], 0.01 to 0.1 µM.
For the compound `Oc1nc(N2CCN(c3ncnc(Nc4ccc5c(c4)CNCC5)n3)CC2)ncc1Cc1ccccc1` [Compound 75], the IC50 on D816V Kit was less than 0.001 µM; on wild type Kit, less than 0.01 µM; at PDGFRA D842V it was less than 0.001 µM; in experiment [1], 0.01 to 0.1 µM.
Take `c1ccc(Cc2cnc(N3CCN(c4ncnc(Nc5cnn(C[C@@H]6CNCCO6)c5)n4)CC3)nc2)cc1` [Compound 124]: the IC50 at D816V Kit is less than 0.001 µM; on wild type Kit it was less than 0.01 µM; at PDGFRA D842V, less than 0.001 µM; in experiment [1], 0.01 to 0.1 µM.
As for `OC1CCC(NCc2cccc(Nc3ncnc(N4CCN(c5ncc(Cc6ccccc6)cn5)CC4)n3)c2)C1` (stereo not drawn) [Compound 214], the IC50 on D816V Kit is less than 0.001 µM; at wild type Kit, 0.011 to 0.1 µM; at PDGFRA D842V, less than 0.001 µM; in experiment [1] it was 0.01 to 0.1 µM.
In the case of `c1ccc(Cc2cnc(N3CCN(c4ncnc(Nc5cccc(C6CCCNC6)c5)n4)CC3)nc2)cc1` (stereo not drawn) [Compound 98], the IC50 on D816V Kit is less than 0.001 µM; at wild type Kit it was less than 0.01 µM; at PDGFRA D842V it was less than 0.001 µM; in experiment [1] it was 0.01 to 0.1 µM.
As to `O[C@H]1CCCN(c2ccc(Nc3ncnc(N4CCN(c5ncc(Cc6ccccc6)cn5)CC4)n3)cc2)C1` [Compound 166], the IC50 at D816V Kit is less than 0.001 µM; on wild type Kit, 0.011 to 0.1 µM; on PDGFRA D842V it was 0.00101 to 0.01 µM; in experiment [1] it was less than 0.01 µM.
The corresponding values for `CN(C)C1CCN(Cc2cccc(Nc3ncnc(N4CCN(c5ncc(Cc6ccccc6)cn5)CC4)n3)c2)C1` (stereo not drawn) [Compound 259] are less than 0.001 µM, less than 0.01 µM, less than 0.001 µM and 0.01 to 0.1 µM.
For `CN1CCc2ccc(Nc3ncnc(N4CCN(c5ncc(Cc6ccccc6)cn5)CC4)n3)cc2C1` [Compound 69], in that order: less than 0.001 µM, less than 0.01 µM, less than 0.001 µM and less than 0.01 µM.
As for `CN1CCC(Cn2cc(Nc3ncnc(N4CCN(c5ncc(Cc6ccccc6)cn5)CC4)n3)cn2)CC1` [Compound 174], the IC50 at D816V Kit was less than 0.001 µM; on wild type Kit, less than 0.01 µM; on PDGFRA D842V, less than 0.001 µM; in experiment [1], less than 0.01 µM.
In the case of `c1ccc(Cc2cnc(N3CCN(c4ncnc(Nc5cnc6c(c5)CNCC6)n4)CC3)nc2)cc1` [Compound 43], the IC50 was less than 0.001 µM on D816V Kit, 0.011 to 0.1 µM on wild type Kit, 0.00101 to 0.01 µM on PDGFRA D842V and 0.01 to 0.1 µM in experiment [1].
`c1ccc(Cc2cnc(N3CCN(c4ncnc(Nc5ccc6c(c5)CNCC6)n4)CC3)nc2)nc1` [Compound 44]: the IC50 lay within 0.00101 to 0.01 µM at D816V Kit, 0.011 to 0.1 µM at wild type Kit, 0.00101 to 0.01 µM on PDGFRA D842V and 0.01 to 0.1 µM in experiment [1].
For the compound `c1ccc(Cc2cnc(N3CCN(c4ncnc(Nc5cn[nH]c5)n4)CC3)nc2)cc1` [Compound 4], the IC50 at D816V Kit was less than 0.001 µM; on wild type Kit it was less than 0.01 µM; on PDGFRA D842V, less than 0.001 µM; in experiment [1] it was 0.01 to 0.1 µM.
With `c1ccc(Cc2cnc(N3CCN(c4ncnc(Nc5ccc(N6CCNCC6)cc5)n4)CC3)nc2)cc1` [Compound 102], the IC50 is less than 0.001 µM on D816V Kit, less than 0.01 µM on wild type Kit, less than 0.001 µM on PDGFRA D842V and 0.01 to 0.1 µM in experiment [1].
